The OligoGym collection
“And” between values parts separate entries of the source, which are not always exact repeats. Identical values can stand only once. After the bases stand the sugars from the 5' end (letter, count) and the backbone: PS all phosphorothioate, else s phosphorothioate and o phosphodiester by linkage. Methylation of C is not given here. e = 2'-O-(2-methoxyethyl) (MOE); k = constrained ethyl (cEt); d = 2'-deoxy (DNA)

Key:
[1] = biological target: APOL1; settings: ASO
[2] = biological target: SOD1; settings: ASO

“AACGCAATGCTGACTT (sugars k2 d4 e3 k2 d5, PS)” was tested, and the target mRNA inhibition ([1]; A431, 2 µM) was 82%.
“AAGATTGGCTCTGGCT (sugars k3 d4 k3 e1 d5, PS)” gave a target mRNA inhibition ([1]; A431, 2 µM) of 35%.
With “AAGATTGGCTCTGGCT (sugars kkdddddkekeddddd, PS)” the target mRNA inhibition ([1]; A431, 2 µM) was 65%.
Sequence “AAGATTGGCTCTGGCT (sugars kkddddkekekkdddd, PS)” has a target mRNA inhibition ([1]; A431, 2 µM) of 2%.
“AAGATTGGCTCTGGCT (sugars kkkddddkekekdddd, PS)” showed a target mRNA inhibition ([1]; A431, 2 µM) of 23%.
Sequence “AAGTATTGCCAGCTAA (sugars k3 d4 k3 e1 d5, PS)” has a target mRNA inhibition ([1]; A431, 2 µM) of 49%.
“AAGTATTGCCAGCTAA (sugars kkdddddkekeddddd, PS)” showed a target mRNA inhibition ([1]; A431, 2 µM) of 73%.
In the case of AAGTGCAACCAATCAA (sugars k4 d9 k3, PS), the target mRNA inhibition ([1]; A431, 0.0625 µM) is reported as 36%, the target mRNA inhibition ([1]; A431, 0.25 µM) is reported as 63% and the target mRNA inhibition ([1]; A431, 1 µM) is reported as 83%.
AATGAACGCAATGCTG (sugars k4 d9 k3, PS) was tested, and the target mRNA inhibition ([1]; A431, 0.0625 µM) was 35%, the target mRNA inhibition ([1]; A431, 0.25 µM) was 50% and the target mRNA inhibition ([1]; A431, 1 µM) was 75%.
With AATGTTTGCATTTGGG (sugars k4 d9 k3, PS) the target mRNA inhibition ([1]; A431, 0.0625 µM) was 95%, the target mRNA inhibition ([1]; A431, 0.25 µM) was 99% and 97% and the target mRNA inhibition ([1]; A431, 1 µM) was 100% and 98%.
“AATTCTATTAGAGGGC (sugars k3 d4 k3 e1 d5, PS)” was tested, and the target mRNA inhibition ([1]; A431, 2 µM) was 70%.
“AATTCTATTAGAGGGC (sugars kkkddddkekekdddd, PS)” gave a target mRNA inhibition ([1]; A431, 2 µM) of 41%.
In the case of “ACACATCATTGGGTTA (sugars kkkddddkekeddddd, PS)”, the target mRNA inhibition ([1]; A431, 2 µM) is reported as 58%.
“ACACATCATTGGGTTA (sugars kkkddddkekekdddd, PS)” gave a target mRNA inhibition ([1]; A431, 2 µM) of 32%.
ACAGCATTGAGTACAA (sugars k4 d9 k3, PS) showed a target mRNA inhibition ([1]; A431, 0.0625 µM) of 44%, a target mRNA inhibition ([1]; A431, 0.25 µM) of 78% and a target mRNA inhibition ([1]; A431, 1 µM) of 90%.
With “ACGCAATGCTGACTTG (sugars k3 d4 k3 e1 d5, PS)” the target mRNA inhibition ([1]; A431, 2 µM) was 88%.
Work on “ACGCAATGCTGACTTG (sugars kekddddeekkddddd, PS)” yielded a target mRNA inhibition ([1]; A431, 2 µM) of 91%.
For “ACGCAATGCTGACTTG (sugars kkddddekekeddddd, PS)”, the target mRNA inhibition ([1]; A431, 0.0156 µM) was 6%, the target mRNA inhibition ([1]; A431, 0.0625 µM) was 23% and the target mRNA inhibition ([1]; A431, 0.25 µM) was 59%. It also gave a target mRNA inhibition ([1]; A431, 1 µM) of 80% and a target mRNA inhibition ([1]; A431, 2 µM) of 92%.
For “ACGCAATGCTGACTTG (sugars kkddddkekekddddd, PS)”, the target mRNA inhibition ([1]; A431, 2 µM) was 79%.
In the case of “ACGCAATGCTGACTTG (sugars kkkddddkdkdkdddd, PS)”, the target mRNA inhibition ([1]; A431, 2 µM) is reported as 70%.
“ACTTTATACCAGTGTC (sugars k2 d4 e3 k2 d5, PS)” showed a target mRNA inhibition ([1]; A431, 2 µM) of 91%.
In the case of AGCATCAAAAACCTGG (sugars k4 d9 k3, PS), the target mRNA inhibition ([1]; A431, 0.0625 µM) is reported as 66%, the target mRNA inhibition ([1]; A431, 0.25 µM) is reported as 81% and the target mRNA inhibition ([1]; A431, 1 µM) is reported as 89%.
Sequence “AGCTTTAAACTCAGGT (sugars kkkddddkekekdddd, PS)” has a target mRNA inhibition ([1]; A431, 2 µM) of 64%.
AGGTTGTCCAGAGCTT (sugars k4 d9 k3, PS) was tested, and the target mRNA inhibition ([1]; A431, 0.0625 µM) was 51%, the target mRNA inhibition ([1]; A431, 0.25 µM) was 60% and the target mRNA inhibition ([1]; A431, 1 µM) was 69%.
For AGTATTGCCAGCTAAG (sugars k4 d9 k3, PS), the target mRNA inhibition ([1]; A431, 0.0625 µM) was 63%, the target mRNA inhibition ([1]; A431, 0.25 µM) was 89% and the target mRNA inhibition ([1]; A431, 1 µM) was 97%.
Sequence “AGTATTGCCAGCTAAG (sugars kkdddddkekeddddd, PS)” has a target mRNA inhibition ([1]; A431, 2 µM) of 86%.
In the case of “AGTATTGCCAGCTAAG (sugars kkddddekekeddddd, PS)”, the target mRNA inhibition ([1]; A431, 2 µM) is reported as 78%.
For “AGTATTGCCAGCTAAG (sugars kkddddkekekddddd, PS)”, the target mRNA inhibition ([1]; A431, 2 µM) was 65%.
“AGTATTGCCAGCTAAG (sugars kkddddkekekkdddd, PS)” showed a target mRNA inhibition ([1]; A431, 2 µM) of 34%.
“AGTATTGCCAGCTAAG (sugars kkkddddkekekdddd, PS)” was tested, and the target mRNA inhibition ([1]; A431, 2 µM) was 66%.
In the case of “AGTATTGTTTTTGTGG (sugars k2 d4 e4 k2 d4, PS)”, the target mRNA inhibition ([1]; A431, 2 µM) is reported as 85%.
“AGTATTGTTTTTGTGG (sugars k3 d4 k3 e1 d5, PS)” gave a target mRNA inhibition ([1]; A431, 2 µM) of 89%.
With “AGTATTGTTTTTGTGG (sugars kkddddkekekkdddd, PS)” the target mRNA inhibition ([1]; A431, 2 µM) was 66%.
Work on “AGTTTTGTAAGTGCAA (sugars kkkddddkekekdddd, PS)” yielded a target mRNA inhibition ([1]; A431, 2 µM) of 77%.
ATAATGGTAGGTCTAC (sugars k4 d9 k3, PS) gave a target mRNA inhibition ([1]; A431, 0.0625 µM) of 42%, a target mRNA inhibition ([1]; A431, 0.25 µM) of 78% and a target mRNA inhibition ([1]; A431, 1 µM) of 90%.
With “ATATCAGATGGGTACT (sugars k2 d4 e3 k2 d5, PS)” the target mRNA inhibition ([1]; A431, 2 µM) was 52%.
With “ATATCAGATGGGTACT (sugars kkddddkekekddddd, PS)” the target mRNA inhibition ([1]; A431, 2 µM) was 21%.
“ATCAGATGGGTACTTC (sugars kekddddeekkddddd, PS)” gave a target mRNA inhibition ([1]; A431, 2 µM) of 91%.
“ATCAGATGGGTACTTC (sugars kkddddekekeddddd, PS)” was tested, and the target mRNA inhibition ([1]; A431, 2 µM) was 73%.
“ATCAGATGGGTACTTC (sugars kkddddkekekkdddd, PS)” showed a target mRNA inhibition ([1]; A431, 2 µM) of 45%.
“ATCAGATGGGTACTTC (sugars kkkddddkdkdkdddd, PS)” gave a target mRNA inhibition ([1]; A431, 2 µM) of 79%.
“ATCAGATGGGTACTTC (sugars kkkddddkekeddddd, PS)” was tested, and the target mRNA inhibition ([1]; A431, 2 µM) was 85%.
In the case of “TTAATGTTTATCAGGATACA (sugars e5 d10 e5, PS)”, the target mRNA inhibition ([2]; HepG2, 5 µM) is reported as 34%.
“TTACACCACAAGCCAAACGA (sugars e5 d10 e5, PS)” was tested, and the target mRNA inhibition ([2]; HepG2, 5 µM) was 24%.
“TTAGTTTGAATTTGGAT (sugars e2 k2 d8 k2 e3, PS)” gave a target mRNA inhibition ([2]; HepG2, 5 µM) of 31%.
With “TTAGTTTGAATTTGGAT (sugars e2 k2 d9 k2 e2, PS)” the target mRNA inhibition ([2]; HepG2, 5 µM) was 16%.
“TTATTCACAGGCTTGAA (sugars e2 k2 d8 k2 e3, PS)” gave a target mRNA inhibition ([2]; HepG2, 5 µM) of 26%.
“TTATTGGGCGATCCCAA (sugars e2 k2 d8 k2 e3, PS)” gave a target mRNA inhibition ([2]; HepG2, 4 µM) of 41%.
“TTCATTTCCACCTTTGC (sugars e3 k2 d7 k2 e3, PS)” gave a target mRNA inhibition ([2]; HepG2, 3 µM) of 33%.
“TTCCCCACACCTTCAC (sugars kekeddddddddekek, linkages s1 o3 s8 o1 s2)” was tested, and the target mRNA inhibition ([2]; A431, 0.12 µM) was 4%, the target mRNA inhibition ([2]; A431, 0.6 µM) was 12% and the target mRNA inhibition ([2]; A431, 3 µM) was 5%. The target mRNA inhibition ([2]; A431, 15 µM) was 12%, the target mRNA inhibition ([2]; HepG2, 0.222 µM) was 6% and the target mRNA inhibition ([2]; HepG2, 0.667 µM) was 16%. The target mRNA inhibition ([2]; HepG2, 2 µM) was 20% and the target mRNA inhibition ([2]; HepG2, 6 µM) was 59%.
For “TTCTACAGCTAGCAGGA (sugars e2 k2 d8 k2 e3, PS)”, the target mRNA inhibition ([2]; HepG2, 0.1875 µM) was 18%, the target mRNA inhibition ([2]; HepG2, 0.75 µM) was 48% and the target mRNA inhibition ([2]; HepG2, 3 µM) was 66%. For the same sequence, the target mRNA inhibition ([2]; HepG2, 4 µM) was 74% and the target mRNA inhibition ([2]; HepG2, 12 µM) was 86%.
In the case of “TTCTACAGCTAGCAGGA (sugars e3 k2 d7 k2 e3, PS)”, the target mRNA inhibition ([2]; HepG2, 3 µM) is reported as 31%.
Sequence “TTCTCACTACAGGTACT (sugars e2 k2 d8 k2 e3, PS)” has a target mRNA inhibition ([2]; HepG2, 5 µM) of 26%.
In the case of “TTCTTTTAATAGCCTCATAA (sugars e5 d10 e5, PS)”, the target mRNA inhibition ([2]; HepG2, 5 µM) is reported as 5%.
Work on “TTGGATTCTTTTAATAG (sugars e2 k2 d9 k2 e2, PS)” yielded a target mRNA inhibition ([2]; HepG2, 5 µM) of 8%.
“TTGGGCGATCCCAATTA (sugars e2 k2 d8 k2 e3, PS)” was tested, and the target mRNA inhibition ([2]; HepG2, 4 µM) was 14%.
Sequence “TTTAATGTTTATCAGGAT (sugars e5 d8 e5, linkages s1 o3 s9 o2 s2)” has a target mRNA inhibition ([2]; A431, 0.12 µM) of 13%, a target mRNA inhibition ([2]; A431, 0.6 µM) of 19% and a target mRNA inhibition ([2]; A431, 3 µM) of 22%. It also gave a target mRNA inhibition ([2]; A431, 15 µM) of 7%, a target mRNA inhibition ([2]; HepG2, 0.222 µM) of 10% and a target mRNA inhibition ([2]; HepG2, 0.667 µM) of 24%. The target mRNA inhibition ([2]; HepG2, 2 µM) was 28% and the target mRNA inhibition ([2]; HepG2, 6 µM) was 53%.
“TTTATTCACAGGCTTGA (sugars e2 k2 d9 k2 e2, PS)” was tested, and the target mRNA inhibition ([2]; HepG2, 5 µM) was 55%.
Sequence “TTTATTCACAGGCTTGA (sugars e3 k2 d7 k2 e3, PS)” has a target mRNA inhibition ([2]; HepG2, 3 µM) of 29%.
Sequence “TTTTCATGGACCACCAGTGT (sugars e5 d10 e5, PS)” has a target mRNA inhibition ([2]; HepG2, 5 µM) of 17%.
For “TTTTTATTCACAGGCTT (sugars e3 k2 d7 k2 e3, PS)”, the target mRNA inhibition ([2]; HepG2, 3 µM) was 31%.
